From the supplement of paper PMC10307832

How the values were obtained:
Assay in all cases: relative viability (nuclei count vs DMSO), 5 days (fraction); higher = more cells survive
[1] = compound: Cc1cc(Nc2cc(N3CCN(C)CC3)nc(Sc3ccc(NC(=O)C4CC4)cc3)n2)n[nH]1 [Tozasertib]
Summary of the method: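 Nuclei counted with MetaXpress define viability as the ratio of treated to vehicle wells, given as a median across plates. The lung cancer cell lines were in 1536-well plates, pinned with five √10-spaced library-drug doses and imaged at 4× after 5 days and Hoechst staining. Plates passed with control CV below 25% and at least one doubling.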

[2] = compound: Cc1cc(Nc2cc(N3CCN(C)CC3)nc(Sc3ccc(NC(=O)C4CC4)cc3)n2)n[nH]1 [Tozasertib] + COc1cccc2cc(-c3nc([C@H]4CC[C@H](C(=O)O)CC4)n4ncnc(N)c34)[nH]c12 [OSI-027] (partner 0.5 µM)
Summary of the method: (§1)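 Lung cancer cell lines in 1536-well plates got either a single drug or a fixed anchor-drug dose together with five library-drug doses (not always all listed) in √10 steps, by pin tool, on the day after seeding. Nuclei were counted after 5 days, and relative viability is the treated-to-vehicle ratio of nuclei counts. Values are medians of duplicate plates.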

[3] = compound: Cc1cc(Nc2cc(N3CCN(C)CC3)nc(Sc3ccc(NC(=O)C4CC4)cc3)n2)n[nH]1 [Tozasertib] + Cc1nc(Nc2ncc(C(=O)Nc3c(C)cccc3Cl)s2)cc(N2CCN(CCO)CC2)n1 [Dasatinib] (partner 0.075 µM)
Summary of the method: as §1

[4] = compound: Cc1cc(Nc2cc(N3CCN(C)CC3)nc(Sc3ccc(NC(=O)C4CC4)cc3)n2)n[nH]1 [Tozasertib] + Cc1nc(NC(=O)N2CCC[C@H]2C(N)=O)sc1-c1ccnc(C(C)(C)C(F)(F)F)c1 [Alpelisib] (partner 2 µM)
Summary of the method: as §1

| Cell Line | relative viability ([1]; 0.004 µM) | relative viability ([1]; 0.01265 µM) | relative viability ([1]; 0.04 µM) | relative viability ([1]; 0.1 µM, anchor plate) | relative viability ([1]; 0.1265 µM) | relative viability ([2]; first compound 0.004 µM) | relative viability ([2]; first compound 0.01265 µM) | relative viability ([2]; first compound 0.04 µM) | relative viability ([2]; first compound 0.1265 µM) | relative viability ([3]; first compound 0.004 µM) | relative viability ([3]; first compound 0.01265 µM) | relative viability ([3]; first compound 0.04 µM) | relative viability ([3]; first compound 0.1265 µM) | relative viability ([4]; first compound 0.004 µM) | relative viability ([4]; first compound 0.01265 µM) | relative viability ([4]; first compound 0.1265 µM) | relative viability ([4]; first compound 0.04 µM) |
| --- | --- | --- | --- | --- | --- | --- | --- | --- | --- | --- | --- | --- | --- | --- | --- | --- | --- |
| NCI-H1734 | 1.01 | 0.957 | 0.95 | 0.266 | 0.504 | 0.597 | 0.596 | 0.557 | 0.435 | 0.422 | 0.444 | 0.452 | 0.314 | 0.656 | 0.64 | 0.469 |  |
| 201T | 0.973 | 0.956 | 0.968 | 0.915 | 0.89 | 0.76 | 0.781 | 0.839 | 0.621 | 0.593 | 0.503 | 0.714 | 0.555 | 0.993 | 0.968 | 1 | 1.06 |
| LK-2 | 1.09 | 0.847 | 1.09 | 0.176 | 0.489 | 0.184 | 0.199 | 0.198 | 0.182 | 0.262 | 0.39 | 0.285 | 0.23 | 1.33 |  | 0.306 | 1.12 |
| HCC-44 | 1.02 | 0.903 | 1.01 | 0.974 |  | 0.605 | 0.485 | 0.606 | 0.341 |  |  |  |  | 0.779 | 0.773 |  | 0.836 |
| NCI-H1355 | 1.03 | 0.956 | 1.05 | 0.585 | 0.817 | 0.368 | 0.383 | 0.458 | 0.343 | 0.691 | 0.706 | 0.843 | 0.49 | 0.851 | 0.804 | 0.78 | 0.96 |
| PC-3 [JPC-3] | 0.918 | 0.981 | 1.05 | 0.88 | 0.733 | 0.587 | 0.74 | 0.799 | 0.701 | 0.863 | 0.966 | 1.06 | 1.03 | 0.835 | 1.03 | 0.959 | 1.03 |
| UMC-11 | 1.03 | 0.898 | 0.966 | 0.206 | 0.342 | 0.538 | 0.471 | 0.512 | 0.171 | 0.495 | 0.545 | 0.521 | 0.161 | 1.08 | 0.968 | 0.146 | 1.13 |
| NCI-H1395 | 1.03 | 0.817 | 0.776 | 0.768 | 0.495 | 0.7 | 0.6 | 0.646 | 0.437 | 0.423 | 0.343 | 0.438 | 0.357 | 1.15 | 1.04 | 0.753 | 0.914 |
| SK-LU-1 | 1.09 | 1.11 | 1.14 | 0.334 | 0.964 | 0.466 | 0.371 | 0.358 | 0.301 | 0.183 | 0.191 | 0.188 | 0.146 | 1.27 | 1.02 | 0.561 | 1.19 |
| NCI-H2405 | 1.04 | 1.01 | 0.992 | 0.731 | 0.885 | 0.616 | 0.676 | 0.642 | 0.698 | 0.251 | 0.124 | 0.19 | 0.197 | 0.723 | 0.812 | 0.807 | 0.778 |
| NCI-H1915 | 1.04 | 0.986 | 0.934 | 0.435 | 0.795 | 0.669 | 0.592 | 0.658 | 0.569 | 0.376 | 0.298 | 0.313 | 0.264 | 1.07 | 1.04 | 0.95 | 1.02 |
| NCI-H1651 | 1.02 | 0.949 | 0.984 | 0.698 | 0.922 | 0.888 | 0.645 |  | 0.666 | 0.433 | 0.371 |  | 0.234 | 0.922 | 1.01 | 1.03 | 0.886 |
| NCI-H1703 | 1.04 | 0.857 | 1.21 |  | 0.556 |  |  |  |  |  |  |  |  | 0.364 | 0.357 | 0.209 | 0.445 |
| HCC-827 | 1.1 | 1.04 | 1.09 | 0.414 | 0.976 | 0.314 |  | 0.789 | 0.582 | 0.299 | 0.282 | 0.352 | 0.345 | 1.03 | 0.931 | 0.954 | 1.06 |
| HCC-78 | 1.1 | 0.819 | 1.09 | 0.464 | 0.806 | 0.387 | 0.357 | 0.363 | 0.361 | 0.541 | 0.316 | 0.469 | 0.322 | 0.38 | 0.305 | 0.241 | 0.46 |
| CAL-12T | 1.09 |  | 0.952 | 0.309 | 0.42 | 0.954 | 0.562 | 0.719 | 0.214 | 0.434 | 0.332 | 0.404 | 0.151 | 1.31 | 1.23 | 1.08 | 1.33 |
| HCC-366 | 0.991 | 1.01 | 1.08 | 0.123 | 0.93 | 0.991 | 0.862 | 1.01 | 0.575 | 0.612 | 0.682 | 0.677 | 0.629 | 0.37 | 0.476 | 0.13 | 0.558 |
| EKVX | 0.939 | 0.937 | 0.988 | 0.386 | 0.898 | 0.692 | 0.671 | 0.734 |  | 0.494 | 0.606 | 0.471 |  | 0.779 | 0.846 | 0.878 | 1.01 |
| NCI-H1793 | 1.03 | 0.76 | 1.01 | 0.384 | 0.892 | 0.229 | 0.214 | 0.358 | 0.228 | 0.387 | 0.36 | 0.377 | 0.285 | 0.578 | 0.699 |  | 0.872 |
| NCI-H2023 | 0.999 | 0.985 | 1.14 | 0.369 | 0.605 | 0.391 | 0.325 | 0.488 | 0.285 | 0.562 | 0.506 | 0.572 | 0.318 | 0.645 | 0.541 | 0.628 | 0.539 |
